Structures can show the parent of a compound that is named as a salt.

In the first experiment the test system is HMOX1. Put plainly: HMOX1 Protein Assay (immunostaining of HO-1 in NHLF cells, GE InCell 1000). It counts as cell-based. As to conditions: Homo sapiens, fold change above DMSO treated cells, 3 μM compound (asterisk), 16 h. Here is the method:
Cell Culture. Normal Human Fibroblast (NHLF), were obtained from Lonza. Cultures of cells were maintained in Fibroblast Growth Medium (FGM-2) medium supplemented with 2% fetal bovine serum (FBS), Fibroblast Growth Factor (hFGF-B) 0.5 mL, Insulin 0.5 mL, gentamicin/amphotericin-B 0.5 mL at 37° C. in a humidified atmosphere of 5% CO2. Cells were grown to 80% confluence before treating.
HMOX1 Protein Assay. NHLF cells were grown to 80% confluency and harvested by washing once with HEPES and then trypsinized. Equal numbers (2×10^3 cells per well) of NHLF cells were plated in 384 well optilux tissue culture (BD) plates. Cells were incubated overnight in FGM-2 medium prior to exposure to compound. Cells were treated with either vehicle (DMSO) or compound (dissolved in vehicle) for 16 h. Cells were washed 2× with 1×PBS and fixed with 4% Paraformaldyhyde for 15 min. The fixed cells were then permeabalized with 0.1% Triton X-100 and blocked with 5% BSA in 1×PBS 0.05% Tween-20 for 15 min. HO-1 antibody (abcam) was used for immunostaining at 1:300 dilution in 1% BSA in 1×PBS for 1 hour. Cells were washed 2× with 1×PBS and secondary antibody goat anti-mouse Alexa 488 1:400 dilution (Invitrogen); Hoechst 1:2000 (Invitrogen) in 1% BSA in 1×PBS for 1 hour. Plate was washed 5× with 1×PBS and read at Hoechst Ex.360 […]; Alexa 488 Ex.480 Em. 535 using GE InCell 1000. Results analyzed using GE InCell Analyzer software. Heme oxygenase data represents the fold change above DMSO treated cells.
In general, the fold induction data are reported for 5 μM concentration (i.e., μ-moles of compound to total volume, where the solvent is about 99.2% media and 0.8% DMSO). In some instances, the reported data are for 3 μM concentration, which are indicated by an asterisk (*).
As a reminder, the fold induction is the ratio of treated to control signal. In turn, `C[C@@H](O)CN1CC[C@@H](NC(=O)c2ccc3c(c2)nc(Nc2nc4ccc(Cl)cc4s2)n3C)C1` [Example 296, 2-(6-Chloro-benzothiazol-2-ylamino)-1-methyl-1H-benzoimidazole-5-carboxylic acid [(R)-1-((R)-2-hydroxy-propyl)-pyrrolidin-3-yl]-amide] displayed a fold induction at 3 µM of 34.6.

In turn, `Cn1c(Nc2nc3ccc(Cl)cc3s2)nc2cc(C(=O)N[C@H]3CC[C@H](O)CC3)ccc21` [Example 225, 2-(6-Chloro-benzothiazol-2-ylamino)-1-methyl-1H-benzoimidazole-5-carboxylic acid (trans-4-hydroxy-cyclohexyl)-amide] came in with a fold induction at 3 µM of 17.7.

`CN1CCN(CCNC(=O)c2ccc3c(c2)nc(Nc2nc4ccc(OC(F)(F)F)cc4s2)n3C)CC1` [Example 337, 1-Methyl-2-(6-trifluoromethoxy-benzothiazol-2-ylamino)-1H-benzoimidazole-5-carboxylic acid [2-(4-methyl-piperazin-1-yl)-ethyl]-amide]: the fold induction at 3 µM turned out to be 12.7.

The same experiment, now with this note: Homo sapiens, fold change above DMSO treated cells, 5 μM compound, 16 h.
Molecule `COC(=O)c1ccc2c(c1)nc(Nc1nc3ccc(S(C)(=O)=O)cc3s1)n2C` [Example 113, 2-(6-Methanesulfonyl-benzothiazol-2-ylamino)-1-methyl-1H-benzoimidazole-5-carboxylic acid methyl ester] yielded a fold induction at 5 µM of 27.6.

In turn, `Cn1c(Nc2nc3ccc(OC(F)(F)F)cc3s2)nc2cc(C(=O)NCC(=O)N3CCNCC3)ccc21` [Example 152, 1-Methyl-2-(6-trifluoromethoxy-benzothiazol-2-ylamino)-1H-benzimidazole-5-carboxylic acid (2-oxo-2-piperazin-1-yl-ethyl)-amide hydrochloride] had a fold induction at 5 µM of 15.

`COC(=O)C(C)(C)NC(=O)c1ccc2c(c1)nc(Nc1nc3ccc(OC(F)(F)F)cc3s1)n2C` [Example 145, 2-Methyl-2-{[1-methyl-2-(6-trifluoromethoxy-benzothiazol-2-ylamino)-1H-benzimidazole-5-carbonyl]-amino}-propionic acid methyl ester]: the fold induction at 5 µM worked out at 7.1.

Molecule `COCCn1c(Nc2nc3ccc(Cl)cc3s2)nc2cc(C(=O)NCC(=O)N3CCN(C)CC3)ccc21` [Example 428, 2-(6-Chloro-benzothiazol-2-ylamino)-1-(2-methoxy-ethyl)-1H-benzoimidazole-5-carboxylic acid [2-(4-methyl-piperazin-1-yl)-2-oxo-ethyl]-amide] gave a fold induction at 5 µM of 24.4.

For the molecule `CN(C)C(=O)C(C)(C)NC(=O)c1ccc2c(c1)nc(Nc1nc3ccc(OC(F)(F)F)cc3s1)n2C` [Example 151, 1-Methyl-2-(6-trifluoromethoxy-benzothiazol-2-ylamino)-1H-benzimidazole-5-carboxylic acid (1-dimethylcarbamoyl-1-methyl-ethyl)-amide], the fold induction at 5 µM stood at 41.3.

The molecule `Cn1c(Nc2nc3ccc(OC(F)(F)F)cc3s2)nc2cc(C(=O)NCCOCCO)c(F)cc21` [Example 237, 6-Fluoro-1-methyl-2-(6-trifluoromethoxy-benzothiazol-2-ylamino)-1H-benzoimidazole-5-carboxylic acid [2-(2-hydroxy-ethoxy)-ethyl]-amide] yielded a fold induction at 5 µM of 30.6.

Consider `CCN(CC)c1cc2c(cc1C(=O)O)nc(Nc1nc3ccc(OC(F)(F)F)cc3s1)n2C` [Example 70, 6-Diethylamino-1-methyl-2-(6-trifluoromethoxy-benzothiazol-2-ylamino)-1H-benzoimidazole-5-carboxylic acid], for which the fold induction at 5 µM is 21.4.

Molecule `Cn1c(Nc2nc3ccc(OC(F)(F)F)cc3s2)nc2cc(C(=O)NCCC#N)ccc21` [Example 212, 1-Methyl-2-(6-trifluoromethoxy-benzothiazol-2-ylamino)-1H-benzoimidazole-5-carboxylic acid (2-cyano-ethyl)-amide] yielded a fold induction at 5 µM of 48.8.

On to `Cn1c(Nc2nc3ccc(OC(F)(F)F)cc3s2)nc2cc(C(=O)NC3CCNC3)ccc21` (centres unmarked) [Example 289, 1-Methyl-2-(6-trifluoromethoxy-benzothiazol-2-ylamino)-1H-benzoimidazole-5-carboxylic acid pyrrolidin-3-ylamide hydrochloride], for which the fold induction at 5 µM worked out at 44.6.

As for `Cn1c(Nc2nc3ccc(OC(F)(F)F)cc3s2)nc2cc(C(=O)NCCC3CCCCO3)ccc21` (centres unmarked) [Example 263, 1-Methyl-2-(6-trifluoromethoxy-benzothiazol-2-ylamino)-1H-benzoimidazole-5-carboxylic acid [2-(tetrahydro-pyran-2-yl)-ethyl]-amide], the fold induction at 5 µM stood at 19.9.

Regarding `CN(C)CC(=O)NCCNC(=O)c1ccc2c(c1)nc(Nc1nc3ccc(OC(F)(F)F)cc3s1)n2C` [Example 323, 1-Methyl-2-(6-trifluoromethoxy-benzothiazol-2-ylamino)-1H-benzoimidazole-5-carboxylic acid [2-(2-dimethylamino-acetylamino)-ethyl]-amide], the fold induction at 5 µM was 113.

`Cn1c(Nc2nc3ccc(OC(F)(F)F)cc3s2)nc2cc(C(=O)NCCCS(C)(=O)=O)ccc21` [Example 110, 1-Methyl-2-(6-trifluoromethoxy-benzothiazol-2-ylamino)-1H-benzimidazole-5-carboxylic acid (3-methanesulfonyl-propyl)-amide] yielded a fold induction at 5 µM of 26.3.

`Cn1c(Nc2nc3ccc(Cl)cc3s2)nc2cc(C(=O)NCCN3CCNC(=O)C3)ccc21` [Example 331, 2-(6-Chloro-benzothiazol-2-ylamino)-1-methyl-1H-benzoimidazole-5-carboxylic acid [2-(3-oxo-piperazin-1-yl)-ethyl]-amide] gave a fold induction at 5 µM of 70.1.

Molecule `Cn1c(Nc2nc3ccc(OC(F)(F)F)cc3s2)nc2cc(C(=O)NCCC(=O)O)ccc21` [Example 98, 3-{[2-(6-Trifluoromethoxy-benzothiazol-2-ylamino)-1-methyl-1H-benzimidazole-5-carbonyl]-amino}-propionic acid] displayed a fold induction at 5 µM of 13.8.

As to `CCn1c(Nc2nc3ccc(C(F)(F)F)cc3s2)nc2cc(C(=O)NCCOC)ccc21` [Example 182, 1-Ethyl-2-(6-trifluoromethyl-benzothiazol-2-ylamino)-1H-benzoimidazole-5-carboxylic acid (2-methoxy-ethyl)-amide], the fold induction at 5 µM is 13.

Take `COCCNC(=O)c1cc2nc(Nc3nc4ccc(OC(F)(F)F)cc4s3)n(C)c2cc1OC` [Example 67, 6-Methoxy-1-methyl-2-(6-trifluoromethoxy-benzothiazol-2-ylamino)-1H-benzoimidazole-5-carboxylic acid (2-methoxy-ethyl)-amide]: the fold induction at 5 µM is 18.7.

Consider `CCNC(=O)c1ccc2c(c1)nc(Nc1nc3ccc(OC(F)(F)F)cc3s1)n2C(C)C` [Example 161, 1-Isopropyl-2-(6-trifluoromethoxy-benzothiazol-2-ylamino)-1H-benzoimidazole-5-carboxylic acid ethylamide], for which the fold induction at 5 µM came out at 19.1.

Molecule `Cn1c(Nc2nc3ccc(OC(F)(F)F)cc3s2)nc2cc(C(=O)NCCCO)ccc21` [Example 13, 1-Methyl-2-(6-trifluoromethoxy-benzothiazol-2-ylamino)-1H-benzoimidazole-5-carboxylic acid (3-hydroxy-propyl)-amide] had a fold induction at 5 µM of 20.1.

Regarding `Cn1c(Nc2nc3ccc(Cl)cc3s2)nc2cc(C(=O)NCCOCCO)ccc21` [Example 235, 2-(6-Chloro-benzothiazol-2-ylamino)-1-methyl-1H-benzoimidazole-5-carboxylic acid [2-(2-hydroxy-ethoxy)-ethyl]-amide], the fold induction at 5 µM was 37.7.

`Cn1c(Nc2nc3ccc(OC(F)(F)F)cc3s2)nc2cc(C(=O)NCCCCO)ccc21` [Example 219, 1-Methyl-2-(6-trifluoromethoxy-benzothiazol-2-ylamino)-1H-benzoimidazole-5-carboxylic acid (4-hydroxy-butyl)-amide] came in with a fold induction at 5 µM of 40.

Molecule `CCN(CC)CCCCNC(=O)c1ccc2c(c1)nc(Nc1nc3ccc(OC(F)(F)F)cc3s1)n2C` [Example 360, 1-Methyl-2-(6-trifluoromethoxy-benzothiazol-2-ylamino)-1H-benzoimidazole-5-carboxylic acid (4-diethylamino-butyl)-amide] yielded a fold induction at 5 µM of 34.3.

As for `Cn1c(Nc2nc3ccc(OC(F)(F)F)cc3s2)nc2cc(S(C)(=O)=O)ccc21` [Example 201, (5-Methanesulfonyl-1-methyl-1H-benzoimidazol-2-yl)-(6-trifluoromethoxy-benzothiazol-2-yl)-amine], the fold induction at 5 µM is 26.5.

With `Cn1c(Nc2nc3ccc(Cl)cc3s2)nc2cc(C(=O)NCC(=O)N[C@@H]3CCCNC3)ccc21` [Example 387, 2-(6-Chloro-benzothiazol-2-ylamino)-1-methyl-1H-benzoimidazole-5-carboxylic acid ((R)-piperidin-3-ylcarbamoylmethyl)-amide hydrochloride], the fold induction at 5 µM is 19.9.

These data come from patent US8759535B2, “Substituted fused imidazole derivatives, pharmaceutical compositions, and methods of use thereof” (High Point Pharmaceuticals, LLC, priority 2010, dated 2014).
